Data on 1 molecule can be found in PMC8261254 (Asian Journal of Pharmaceutical Sciences, 2021).

Usually solubility stands for how much of the substance goes into solution per volume. A higher solubility goes with a readily soluble substance.

Data set [1] can be described thus: PTX solubility in PLHNs / water. It counts as physicochemical.
For data set [2] the following is noted: cited from earlier work.

In brackets after ≈: the same amount, converted by molar mass. Like-named read-outs stand apart in the source and are kept apart here.

In data set [1], `CC(=O)O[C@H]1C(=O)[C@@]2(C)[C@H]([C@H](OC(=O)c3ccccc3)[C@]3(O)C[C@H](OC(=O)[C@H](O)[C@@H](NC(=O)c4ccccc4)c4ccccc4)C(C)=C1C3(C)C)[C@]1(OC(C)=O)CO[C@@H]1C[C@@H]2O` [PTX, Paclitaxel] returned a solubility of approximately 6 µg/mL (≈ 7.03 µM). Moreover, the “Plasma concentration threshold above which PTX is pharmacologically active” value in data set [2] is 0.1 µM; in data set [2] (equivalent of 0.1 µM) it was 85.3 ng/ml.
